In patent publication US11384063B2, “Modulators of estrogen receptor proteolysis and associated methods of use” (Arvinas Operations, Inc., priority 2017, dated 2022) one finds IC50 data, which are given here for 39 compounds.

Each structure is given as a SMILES string.

The target in one assay is T1, ERα (Homo sapiens, UniProt P03372).
T1 sequence (P03372 1-595): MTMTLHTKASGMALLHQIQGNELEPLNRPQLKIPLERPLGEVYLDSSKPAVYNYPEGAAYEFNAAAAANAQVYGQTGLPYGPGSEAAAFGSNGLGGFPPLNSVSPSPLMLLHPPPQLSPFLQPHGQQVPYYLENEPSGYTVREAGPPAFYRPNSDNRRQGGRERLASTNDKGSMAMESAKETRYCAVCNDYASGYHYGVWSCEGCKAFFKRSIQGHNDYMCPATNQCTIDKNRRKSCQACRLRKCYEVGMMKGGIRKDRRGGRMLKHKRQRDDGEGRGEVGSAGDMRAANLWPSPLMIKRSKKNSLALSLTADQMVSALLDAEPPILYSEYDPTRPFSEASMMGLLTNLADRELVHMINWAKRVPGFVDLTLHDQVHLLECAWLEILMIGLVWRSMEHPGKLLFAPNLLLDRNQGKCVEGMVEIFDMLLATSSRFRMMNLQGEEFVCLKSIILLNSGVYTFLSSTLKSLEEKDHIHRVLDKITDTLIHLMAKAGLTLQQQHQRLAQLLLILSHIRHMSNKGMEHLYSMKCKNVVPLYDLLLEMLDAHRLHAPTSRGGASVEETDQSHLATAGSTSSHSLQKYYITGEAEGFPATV
Kind of assay: ERE luciferase reporter gene assay in T47D-KBluc cells (target engagement). The format is cell-based. On the set-up: T47D human breast cancer cells stably transfected with estrogen responsive element/promoter/luciferase reporter gene; host or cells: T47D-KBluc cells. Conditions: 10% FBS, 24 hours, Table 1 cereblon centric PROTACs, read-out: ER-α Luciferase IC50. The protocol:
Chimeric molecules were assessed for target engagement in T47D cells using the commercial kit of ERE luciferase reporter gene assay. In the assay, 10% FBS was included and estrogen level was measured to be 10 pM.
ERE Luciferase Assay for Compounds in Table 1-3.
T47D-KBluc cells (ATCC #CRL_2865, T47D human breast cancer cells stably transfected with estrogen responsive element/promoter/luciferase reporter gene) were seeded into 96-well white opaque plates in RPMI growth medium supplemented with 10% fetal bovine serum and allowed to adhere overnight in a 37° C. humidified incubator. The following day, cells were treated with PROTACs in a 12-point concentration curve (top final concentration of 300 nM with subsequent concentrations being 3-fold less with 2 pM being the lowest concentration in the assay). Each PROTAC was tested independently in two experiments on 96-well plates. After 24 hours, media was removed and lysis buffer was added to the wells. Following lysis, Bright-Glo™ Luciferase Assay Substrate (Prornega, Madison Wis.) was added and the luciferase activity was measured using a Cytation 3 plate reader (TioTek™, Winooski, Vt.). Each compound was assayed in duplicates and the activity was calculated as IC50 using GraphPad Prism software (San Diego, Calif.).
In the case of `O=C1CCC(N2C(=O)c3ccc(NCCCC4CCN(CCOc5ccc(Oc6c(-c7ccc(Br)cc7)sc7cc(O)ccc67)cc5)CC4)cc3C2=O)C(=O)N1` (stereo not drawn) [Compound 68], the IC50 stood at 5.9 nM. `O=C1CCC(N2Cc3c(NCCOCCOCCOCCOCCOc4ccc(Oc5c(-c6ccc(Br)cc6)sc6cc(O)ccc56)cc4)cccc3C2=O)C(=O)N1` (stereo not drawn) [Compound 18]: the IC50 turned out to be 81.4 nM.

On to `O=C1CCC(N2C(=O)c3ccc(NCCC4CCN(CCOc5ccc(Oc6c(-c7ccc(Br)cc7)sc7cc(O)ccc67)cc5)CC4)cc3C2=O)C(=O)N1` (stereo not drawn) [Compound 62], for which the IC50 amounted to 8.5 nM. Same read-out and setting: next, `O=C(CN1CCN(CCOc2ccc(Oc3c(-c4ccc(Br)cc4)sc4cc(O)ccc34)cc2)CC1)NCc1ccc2c(c1)CN(C1CCC(=O)NC1=O)C2=O` (stereo not drawn) [Compound 1]: 12.7 nM; `O=C1CCC(N2C(=O)c3cccc(NCCN4CCN(CCOc5ccc(Oc6c(-c7ccc(Br)cc7)sc7cc(O)ccc67)cc5)CC4)c3C2=O)C(=O)N1` (stereo not drawn) [Compound 6]: 1.3 nM; `O=C1CCC(N2C(=O)c3ccc(NCCCOCCCOc4ccc(Oc5c(-c6ccc(Br)cc6)sc6cc(O)ccc56)cc4)cc3C2=O)C(=O)N1` (stereo not drawn) [Compound 82]: 32.2 nM.

For the compound `O=C1CCC(N2Cc3c(OCCOCCOCCOCCOCCOc4ccc(Oc5c(-c6ccc(Br)cc6)sc6cc(O)ccc56)cc4)cccc3C2=O)C(=O)N1` (stereo not drawn) [Compound 25], the IC50 came to 8.6 nM.

Take `O=C1CCC(N2Cc3c(OCCOCCOc4ccc(Oc5c(-c6ccc(Br)cc6)sc6cc(O)ccc56)cc4)cccc3C2=O)C(=O)N1` (stereo not drawn) [Compound 17]: the IC50 was 2.9 nM. On the same count and under the same terms, next, `O=C1CC[C@@H](N2Cc3cc(OCCN4C[C@H]5C[C@@H]4CN5CCOc4ccc(Oc5c(-c6ccc(Br)cc6)sc6cc(O)ccc56)cc4)ccc3C2=O)C(=O)N1` [Compound 38]: 1.1 nM; `O=C(CC1CCN(CCOc2ccc(Oc3c(-c4ccc(Br)cc4)sc4cc(O)ccc34)cc2)CC1)NCc1ccc2c(c1)CN(C1CCC(=O)NC1=O)C2=O` (stereo not drawn) [Compound 63]: 0.82 nM. Same read-out and setting: next, `O=C1CCC(N2Cc3cc(OCCCOCCOCCOc4ccc(Oc5c(-c6ccc(Br)cc6)sc6cc(O)ccc56)cc4)ccc3C2=O)C(=O)N1` (stereo not drawn) [Compound 43]: 6.1 nM. `O=C1CCC(N2Cc3c(NCCN4CCN(CCOc5ccc(Oc6c(-c7ccccc7)sc7cc(O)ccc67)cc5)CC4)cccc3C2=O)C(=O)N1` (stereo not drawn) [Compound 2]: the IC50 turned out to be 0.36 nM. Still for that read-out and setting: under `O=C1CCC(N2Cc3c(NCCOCCOCCOCCOc4ccc(Oc5c(-c6ccc(Br)cc6)sc6cc(O)ccc56)cc4)cccc3C2=O)C(=O)N1` (stereo not drawn) [Compound 22] stands 41.4 nM; under `O=C1CCC(N2C(=O)c3cccc(NCCN4CCN(CCOc5ccc(Oc6c(-c7ccccc7)sc7cc(O)ccc67)cc5)CC4)c3C2=O)C(=O)N1` (stereo not drawn) [Compound 10], 0.63 nM. The same measure, in the same setting: under `O=C1CCC(N2C(=O)c3cccc(NCCOCCOCCOc4ccc(Oc5c(-c6ccc(Br)cc6)sc6cc(O)ccc56)cc4)c3C2=O)C(=O)N1` (stereo not drawn) [Compound 26] stands 9.7 nM; under `O=C1CCC(N2C(=O)c3ccc(N4CCN(CCCCCCCOc5ccc(Oc6c(-c7ccc(Br)cc7)sc7cc(O)ccc67)cc5)CC4)cc3C2=O)C(=O)N1` (stereo not drawn) [Compound 69], 103 nM. On the same count and under the same terms, under `O=C1CCC(N2C(=O)c3cccc(NCCOCCOCCOCCOc4ccc(Oc5c(-c6ccc(Br)cc6)sc6cc(O)ccc56)cc4)c3C2=O)C(=O)N1` (stereo not drawn) [Compound 23] stands 22.4 nM; under `O=C1CCC(N2C(=O)c3ccc(CCCOC4CCN(CCOc5ccc(Oc6c(-c7ccc(Br)cc7)sc7cc(O)ccc67)cc5)CC4)cc3C2=O)C(=O)N1` (stereo not drawn) [Compound 70], 1.6 nM; under `O=C1CCC(N2C(=O)c3ccc(OCCOCCOc4ccc(Oc5c(-c6ccc(Br)cc6)sc6cc(O)ccc56)cc4)cc3C2=O)C(=O)N1` (stereo not drawn) [Compound 66], 5.8 nM. For `O=C1CCC(N2C(=O)c3cccc(NCCOCCOCCOCCOCCOc4ccc(Oc5c(-c6ccc(Br)cc6)sc6cc(O)ccc56)cc4)c3C2=O)C(=O)N1` (stereo not drawn) [Compound 20], the IC50 was found to be 39.9 nM. On the same count and under the same terms, under `O=C1CCC(N2C(=O)c3ccc(OCCCOCCCOc4ccc(Oc5c(-c6ccc(Br)cc6)sc6cc(O)ccc56)cc4)cc3C2=O)C(=O)N1` (stereo not drawn) [Compound 77] stands 34.1 nM.

Still in this assay, the particulars now being: 10% FBS, 24 hours, Table 2 VHL centric PROTACs, read-out: IC50.
For the compound `COc1ccc2c(Oc3ccc(OCCN4CCN(CCOCC(=O)N[C@H](C(=O)N5CC(=O)C[C@H]5C(=O)NCc5ccc(-c6scnc6C)cc5)C(C)(C)C)CC4)cc3)c(-c3ccc(Br)cc3)sc2c1` [Compound 159], the 50% inhibitory concentration (IC50) is > 100 nM.

For `Cc1ncsc1-c1ccc(CNC(=O)[C@@H]2C[C@@H](O)CN2C(=O)[C@@H](NC(=O)CCCOCC2CCN(CCOc3ccc(Oc4c(-c5ccc(F)cc5)sc5cc(O)ccc45)cc3)C2)C(C)(C)C)cc1` (stereo partly drawn) [Compound 131], the concentration for half-maximal inhibition (IC50) is 0.4 nM.

`COc1ccc2c(Oc3ccc(OCCN4CCN(CCOCC(=O)N[C@H](C(=O)N5C[C@H](O)C[C@H]5C(=O)N[C@@H](C)c5ccc(-c6scnc6C)cc5)C(C)(C)C)CC4)cc3)c(-c3ccc(Br)cc3)sc2c1` [Compound 155]: the IC50 is > 100 nM.

As to `Cc1ncsc1-c1ccc(CNC(=O)[C@@H]2C[C@@H](O)CN2C(=O)[C@H](c2cc(OCCN3CCN(CCOc4ccc(Oc5c(-c6ccc(Br)cc6)sc6cc(O)ccc56)cc4)CC3)no2)C(C)C)cc1` [Compound 163], the IC50 is > 100 nM. On to `Cc1ncsc1-c1ccc(CNC(=O)[C@H]2C[C@H](O)CN2C(=O)[C@@H](NC(=O)COCCN2CCN(CCOc3ccc(Oc4c(-c5ccc(Br)cc5)sc5cc(O)ccc45)cc3)CC2)C(C)(C)C)cc1` [Compound 152], for which the IC50 is > 100 nM. Still for that read-out and setting: under `Cc1ncsc1-c1ccc(CNC(=O)[C@@H]2C[C@@H](O)CN2C(=O)[C@@H](NC(=O)CCCOC2CCN(CCOc3ccc(Oc4c(-c5ccc(F)cc5)sc5cc(O)ccc45)cc3)CC2)C(C)(C)C)cc1` [Compound 137] stands 87 nM.

Staying with this assay, now noted: 10% FBS, 24 hours, Table 3 cereblon centric PROTACs, read-out: ER-α Luciferase IC50.
On to `O=C1CCC(N2Cc3cc(N4CCN(C5CC6(C5)CN(CCOc5ccc(Oc7c(-c8ccc(C(F)(F)F)cc8)sc8cc(O)ccc78)cc5)C6)CC4)ccc3C2=O)C(=O)N1` (stereo not drawn) [Compound 198], for which the IC50 was determined as 10.2 nM. Still for that read-out and setting: next, `O=C1CCC(N2Cc3cc(N4CC(N5CCC(Oc6ccc(Oc7c(-c8ccc(Br)cc8)sc8cc(O)ccc78)cc6)CC5)C4)ccc3C2=O)C(=O)N1` (stereo not drawn) [Compound 240]: 1.2 nM; `O=C1CCC(N2C(=O)c3ccc(N4CC(CN5CCC(c6ccc(Oc7c(-c8ccc(Br)cc8)sc8cc(O)ccc78)cc6)CC5)C4)cc3C2=O)C(=O)N1` (stereo not drawn) [Compound 209]: 2.8 nM; `O=C1CCC(N2Cc3cc(N4CCC(CN5CCC(Oc6ccc(Oc7c(-c8ccc(C(F)(F)F)cc8)sc8cc(O)ccc78)cc6)CC5)CC4)ccc3C2=O)C(=O)N1` (stereo not drawn) [Compound 187]: 5.1 nM. On the same count and under the same terms, next, `O=C1CCC(N2Cc3cc(N4CCN(CC5CCN(CCOc6ccc(Oc7c(-c8ccc(C(F)(F)F)cc8)sc8cc(O)ccc78)cc6)CC5)CC4)c(F)cc3C2=O)C(=O)N1` (stereo not drawn) [Compound 204]: 16.4 nM; `O=C1CCC(N2Cc3cc(N4CCC(N5CC(Oc6ccc(Oc7c(-c8ccc(Br)cc8)sc8cc(O)ccc78)cc6)C5)CC4)ccc3C2=O)C(=O)N1` (stereo not drawn) [Compound 233]: 2.1 nM. The same measure, in the same setting: next, `O=C1CCC(N2C(=O)c3ccc(CCCCN4CCCN(CCOc5ccc(Oc6c(-c7ccc(Br)cc7)sc7cc(O)ccc67)cc5)CC4)cc3C2=O)C(=O)N1` (stereo not drawn) [Compound 197]: 2.8 nM; `O=C1CCC(N2Cc3cc(N4CCN(CCCOc5ccc(Oc6c(-c7ccc(OC(F)(F)F)cc7)sc7cc(O)ccc67)cc5)CC4)c(F)cc3C2=O)C(=O)N1` (stereo not drawn) [Compound 219]: 19.1 nM; `O=C1CCC(N2Cc3c(ccc(N4CCN(C5CCN(CCOc6ccc(Oc7c(-c8ccc(Br)cc8)sc8cc(O)ccc78)cc6)CC5)CC4)c3F)C2=O)C(=O)N1` (stereo not drawn) [Compound 195]: 2.9 nM.

As for `O=C1CCC(N2C(=O)c3ccc(N4CCC(N5CC(Oc6ccc(Oc7c(-c8ccc(Br)cc8)sc8cc(O)ccc78)cc6)C5)CC4)cc3C2=O)C(=O)N1` (stereo not drawn) [Compound 212], the IC50 came out at 15 nM.

As to `O=C1CCC(N2Cc3cc(NCCCOCCCOCCCOc4ccc(Oc5c(-c6ccc(Br)cc6)sc6cc(O)ccc56)cc4)ccc3C2=O)C(=O)N1` (stereo not drawn) [Compound 170], the IC50 stood at 5.6 nM. On the same count and under the same terms, next, `O=C1CCC(N2C(=O)c3ccc(N4CC(CN5CCN(CCOc6ccc(Oc7c(-c8ccc(Br)cc8)sc8cc(O)ccc78)cc6)CC5)C4)cc3C2=O)C(=O)N1` (stereo not drawn) [Compound 189]: 3 nM.
